Reference: patent US20120010075A1 (priority 2009, published 2012)
Like-named read-outs stand apart in the source and are kept apart here.

Legend:
[1] = system: Leptosphaeria nodorum (LEPTNO); assay: In vitro fungitoxicity of hydrazones with and without copper towards Leptosphaeria nodorum (Example 26); assay type: cell-based; details: 72 h at 25° C.; for inhibition of growth at 0.05 µg/mL: Parastagonospora nodorum, 72 h, read-out: LEPTNO % Inhn. Minus Copper Observed
[2] = system: Phytophthora infestans; assay type: in vivo, Phytophthora infestans on tomato; details: applied 24 h before inoculation, assessed 7 days after inoculation
[3] = copper-minus medium, test compound Concn. 0.05 μg/mL
[4] = copper-plus medium (CuCl2 10 μM), test compound Concn. 0.05 μg/mL
[5] = hydrazone 50 ppm with 50 μM CuCl2.2H2O, tomato late blight
[6] = compound 0.05 μg/mL, copper-minus medium
[7] = compound 0.05 μg/mL, copper-plus medium (CuCl2.2H2O)
[8] = hydrazone 50 ppm + 50 μM CuCl2.2H2O, tomato

Compound | melting point [°C] | inhibition of growth at 0.05 µg/mL [1, 3] [%] | LEPTNO % Inhn. Plus Copper Observed [1, 4] [%] | TLB % Control [2, 5] [%] | inhibition of growth at 0.05 µg/mL [1, 6] [%] | LEPTNO % Inhn. Plus Copper Observed [1, 7] [%] | TLB % Control [2, 8] [%] | LEPTNO % Inhn. Minus Copper Observed [1, 6] [%]
O=C(N/N=C/c1cc(Cl)cc(C(F)(F)F)c1O)c1cccc(F)c1 [Example 378] | 219 to 221 | 26.3 | 98.4 | 97.0 | – | – | – | –
O=C(N/N=C/c1cc(Cl)cc(Cl)c1O)c1ccc2ccccc2c1O [Example 488] | 276 to 278 | 20.1 | 92.6 | 72.0 | – | – | – | –
C/C(=N\NC(=O)c1ccc(C(F)(F)F)cc1)c1cc(Br)cc(Br)c1O [Example 548] | 255 to 257 | 6.7 | 97.5 | 98.0 | – | – | – | –
O=C(N/N=C/c1cc(Cl)cc(Br)c1O)c1cc(Cl)ccc1Cl [Example 196] | 169 to 173 | – | – | – | 4.4 | 97.7 | 94.5 | –
O=C(N/N=C(/c1ccccc1O)C(F)(F)F)c1ccccc1 [Example 591] | 208 to 210 | 0 | 9.9 | 11.0 | – | – | – | –
Cc1ccc(C(=O)N/N=C/c2ccc(Cl)cc2O)cc1 [Example 388] | 258 to 260 | 17.2 | 98.1 | 61.0 | – | – | – | –
O=C(N/N=C/c1c(C(F)(F)F)ccc(Cl)c1O)c1ccc(F)cc1 [Example 450] | 231 to 233 | 1.1 | 93.5 | 100.0 | – | – | – | –
C/C(=N\NC(=O)c1ccc(C)cc1C)c1ccccc1O [Example 33] | 188 to 190 | – | – | – | – | 93.1 | 50.9 | 0.0
C/C(=N\NC(=O)c1ccccc1C(F)(F)F)c1ccccc1O [Example 58] | 208 to 210 | – | – | – | 0 | 95.0 | 49.0 | –
C/C(=N\NC(=O)c1ccc(Cl)cc1O)c1cc(Cl)cc(Cl)c1O [Example 489] | 314 to 317 | 15.8 | 97.8 | 85.0 | – | – | – | –
O=C(N/N=C/c1cc(Br)cc(Br)c1O)c1ccc2ccccc2c1 [Example 111] | 237 to 239 | – | – | – | 16.8 | 97.4 | 63.6 | –
O=C(N/N=C/c1cccc(C(F)(F)F)c1O)c1ccccc1C(F)(F)F [Example 353] | 169 to 171 | 0 | 94.8 | 81.0 | – | – | – | –
COc1cccc(/C(C)=N/NC(=O)c2ccccc2O)c1O [Example 468] | 255 to 257 | 6.2 | 98.1 | 92.0 | – | – | – | –
C/C(=N\NC(=O)c1ccccc1O)c1cccc([N+](=O)[O-])c1O [Example 525] | 274 to 283 | 5.4 | 97.4 | 78.0 | – | – | – | –
Cc1ccc(C(=O)N/N=C/c2cccc(Cl)c2O)c(O)c1 [Example 433] | 258 to 266 | 10.8 | 97.8 | 100.0 | – | – | – | –
COc1ccc(/C(C)=N/NC(=O)c2ccc(Br)cc2)c(O)c1 [Example 483] | 239 to 241 | 0 | 97.9 | 63.0 | – | – | – | –
C/C(=N\NC(=O)c1ccc(C(F)(F)F)cc1)c1cc(Cl)cc(Cl)c1O [Example 470] | 237 to 238 | 4 | 98.0 | 93.0 | – | – | – | –
COc1ccc(O)c(/C(C)=N/NC(=O)c2ccc(C)cc2)c1 [Example 264] | 159 to 162 | – | – | – | 6 | 98.4 | 21.0 | –
O=C(N/N=C/c1cc(Cl)ccc1O)c1ccccc1C(F)(F)F [Example 422] | 154 to 164 | 0 | 95.5 | 90.0 | – | – | – | –
C/C(=N\NC(=O)c1ccc(Cl)cc1)c1ccc(Cl)cc1O [Example 257] | 246 to 247 | – | – | – | 6 | 94.4 | 21.0 | –

Compound | melting point [°C] | inhibition of growth at 0.05 µg/mL [1, 3] [%] | LEPTNO % Inhn. Plus Copper Observed [1, 4] [%] | TLB % Control [2, 5] [%] | inhibition of growth at 0.05 µg/mL [1, 6] [%] | LEPTNO % Inhn. Plus Copper Observed [1, 7] [%] | TLB % Control [2, 8] [%] | LEPTNO % Inhn. Minus Copper Observed [1, 6] [%]
Cc1ccc(C(=O)N/N=C(\CCc2ccccc2)c2ccccc2O)c(C)c1 [Example 31] | 143 to 145 | – | – | – | 2.2 | 89.0 | 33.3 | –
O=C(N/N=C/c1cc(Cl)c(Cl)cc1O)c1ccccc1 [Example 240] | 238 to 241 | – | – | – | 0 | 98.1 | 74.6 | –
Cc1ccc(C(=O)N/N=C/c2cccc(C(F)(F)F)c2O)c(O)c1 [Example 352] | 248 to 253 | 8.8 | 98.4 | 100.0 | – | – | – | –
C/C(=N\NC(=O)c1ccccc1O)c1cc(Br)cc(Br)c1O [Example 550] | 305 to 306 | 4.6 | 97.2 | 63.0 | – | – | – | –
O=C(N/N=C/c1cc(Cl)cc(Br)c1O)c1cccc([N+](=O)[O-])c1 [Example 416] | 167 to 226 | 4.3 | 97.5 | 93.0 | – | – | – | –
O=C(N/N=C/c1cc(C(F)(F)F)ccc1O)c1ccc([N+](=O)[O-])cc1 [Example 442] | 259 to 265 | 0 | 100.0 | 98.0 | – | – | – | –
C/C(=N\NC(=O)c1ccccc1C)c1cc(Br)cc(Br)c1O [Example 540] | 221 to 222 | 0 | 97.5 | 95.0 | – | – | – | –
C/C(=N\NC(=O)c1ccc(C(F)(F)F)cc1)c1cc(Br)ccc1O [Example 518] | 272 to 280 | 24.2 | 97.4 | 58.0 | – | – | – | –
Cc1ccc(C(=O)N/N=C/c2cc(Cl)cc(Cl)c2O)c(O)c1 [Example 308] | 262 to 269 | 37.2 | 97.7 | 96.0 | – | – | – | –
O=C(N/N=C/c1cc(C(F)(F)F)ccc1O)c1cccc(Cl)c1 [Example 439] | 187 to 197 | 0 | 100.0 | 96.0 | – | – | – | –
COc1cc(O)c(/C(C)=N/NC(=O)c2cccc(Cl)c2)c(OC)c1 [Example 567] | 206 to 215 | 2.5 | 42.3 | 14.0 | – | – | – | –
Cc1cc(C)cc(C(=O)N/N=C/c2cc(Br)ccc2O)c1 [Example 107] | 191 to 195 | – | – | – | 0 | 97.2 | 74.6 | –
O=C(N/N=C/c1cc(Cl)cc(Br)c1O)c1cccc(F)c1 [Example 414] | 209 to 215 | 14.6 | 97.9 | 90.0 | – | – | – | –
COc1cc(O)c(/C(C)=N/NC(=O)c2ccc(Cl)cc2)c(OC)c1 [Example 568] | 136 to 140 | 8 | 94.3 | 61.0 | – | – | – | –
COc1cccc(C(=O)N/N=C/c2cc(Cl)cc(Br)c2O)c1 [Example 166] | 166 to 168 | – | – | – | 2.6 | 97.9 | 71.9 | –
Cc1ccc(C(=O)N/N=C/c2cc(C(F)(F)F)cc(Cl)c2O)c(O)c1 [Example 331] | 255 to 257 | 22.8 | 97.8 | 100.0 | – | – | – | –
COc1ccc(C(=O)N/N=C(\C)c2cc(F)cc(F)c2O)cc1 [Example 579] | 243 to 247 | 0 | 97.6 | 97.0 | – | – | – | –
C/C(=N\NC(=O)c1cccc(Br)c1)c1cc(Cl)cc(Cl)c1O [Example 138] | 247 to 253 | – | – | – | 4 | 98.1 | 91.0 | –
O=C(N/N=C/c1ccc(Cl)c(Cl)c1O)c1ccccc1O [Example 362] | 280 to 282 | 11.1 | 97.2 | 97.0 | – | – | – | –
O=C(N/N=C(/c1cc(Cl)cc(Cl)c1O)C(F)(F)F)c1ccccc1 [Example 587] | 195 to 196 | 6.2 | 96.6 | 2.4 | – | – | – | –
